Laboratory results: patent publication US6596721B2, “Stable crystalline (6R) -tetrahydrofolic acid” (Eprova AG, priority 1994, dated 2003)

Assay: Stability on storage under severe conditions at 60° C. in the air (remaining tetrahydrofolic acid content by HPLC, colour)
Format: physicochemical
Conditions: for Colour / discoloration: after a prolonged test period at 60° C. in the air
Method: The tetrahydrofolic acid contents and the isomer contents given in the following examples were in each case determined by HPLC. All tetrahydrofolic acid contents are based on the anhydrous substance.
To determine the stability of crystalline (6S)- and (6R)-tetrahydrofolic acid, the substances together with comparison samples were stored under severe conditions at 60° C. in the air. The remaining tetrahydrofolic acid content was measured at periodic intervals and is shown in comparison with the initial value.
In contrast, the other products which are included for comparison reasons discolor rapidly to a high degree.
The substances employed for the stability tests were prepared as follows:
crystalline (6S)-tetrahydrofolic acid as in Example 6 of the present patent application crystalline (6R)-tetrahydrofolic acid as in Example 9 of the present patent application “Yamanouchi's crystalline (6R,S)-tetrahydrofolic acid” as in DE-OS 2 323 124, Example 3
amorphous (6S)-tetrahydrofolic acid (6S)-tetrahydrofolic acid is dissolved in acetic acid and precipitated using diethyl ether
amorphous (6R)-tetrahydrofolic acid (6R)-tetrahydrofolic acid is dissolved in acetic acid and precipitated using diethyl ether
amorphous (6R,S)-tetrahydrofolic acid (6R,S)-tetrahydrofolic acid is dissolved in acetic acid and precipitated using diethyl ether.

[1] = 0 days (initial value), 60° C. in air

Row | Compound | Remaining tetrahydrofolic acid content in comparison with the initial value [1] [%] | Remaining tetrahydrofolic acid content in comparison with the initial value (2 days at 60° C. in air) [%] | Remaining tetrahydrofolic acid content in comparison with the initial value (6 days at 60° C. in air) [%] | Remaining tetrahydrofolic acid content in comparison with the initial value (13 days at 60° C. in air) [%] | Remaining tetrahydrofolic acid content in comparison with the initial value (21 days at 60° C. in air) [%] | Remaining tetrahydrofolic acid content in comparison with the initial value (28 days at 60° C. in air) [%] | Remaining tetrahydrofolic acid content in comparison with the initial value (57 days at 60° C. in air) [%] | Remaining tetrahydrofolic acid content in comparison with the initial value (360 days at 60° C. in air) [%] | Colour / discoloration | Remaining tetrahydrofolic acid content in comparison with the initial value (0 h) [%] | Remaining tetrahydrofolic acid content in comparison with the initial value (48 h) [%] | Remaining tetrahydrofolic acid content in comparison with the initial value (144 h) [%] | Remaining tetrahydrofolic acid content in comparison with the initial value (312 h) [%] | Remaining tetrahydrofolic acid content in comparison with the initial value (504 h) [%] | Remaining tetrahydrofolic acid content in comparison with the initial value (1368 h) [%]
1 | Nc1nc2c(c(=O)[nH]1)N[C@H](CNc1ccc(C(=O)N[C@@H](CCC(=O)O)C(=O)O)cc1)CN2 [amorphous (6R)-tetrahydrofolic acid, (6R)-tetrahydrofolic acid] | 100.0 | 70.5 | – | 29.1 | 21.6 | – | 9.8 | – | – | – | – | – | – | – | –
2 | Nc1nc2c(c(=O)[nH]1)N[C@@H](CNc1ccc(C(=O)N[C@@H](CCC(=O)O)C(=O)O)cc1)CN2 [Amorphous (6S)-tetrahydrofolic acid, (6S)-tetrahydrofolic acid] | 100.0 | 60.4 | – | 13.7 | 7.9 | – | – | – | – | – | – | – | – | – | –
3 | Nc1nc(=O)c2c([nH]1)NC[C@@H](CNc1ccc(C(=O)N[C@@H](CCC(=O)O)C(=O)O)cc1)N2 [Crystalline (6R)-tetrahydrofolic acid, N-[4-[[(2-amino-1,4,5,6,7,8-hexahydro-4-oxo-(6R)-pteridinyl)methyl]amino]benzoyl]-Lglutamic acid] | – | – | – | – | – | – | – | – | remain very pale, almost white | 100.0 | 96.4 | 96.1 | 93.3 | 92.7 | 82.0
4 | Nc1nc2c(c(=O)[nH]1)N[C@H](CNc1ccc(C(=O)N[C@@H](CCC(=O)O)C(=O)O)cc1)CN2 (mixture of isomers) [amorphous (6R,S)-tetrahydrofolic acid, (6R,S)-tetrahydrofolic acid] | 100.0 | 53.4 | – | 17.4 | 13.2 | – | – | – | – | – | – | – | – | – | –

Now from value to compound:

Row | Remaining tetrahydrofolic acid content in comparison with the initial value [1] [%] | Remaining tetrahydrofolic acid content in comparison with the initial value (2 days at 60° C. in air) [%] | Remaining tetrahydrofolic acid content in comparison with the initial value (6 days at 60° C. in air) [%] | Remaining tetrahydrofolic acid content in comparison with the initial value (13 days at 60° C. in air) [%] | Remaining tetrahydrofolic acid content in comparison with the initial value (21 days at 60° C. in air) [%] | Remaining tetrahydrofolic acid content in comparison with the initial value (28 days at 60° C. in air) [%] | Remaining tetrahydrofolic acid content in comparison with the initial value (57 days at 60° C. in air) [%] | Remaining tetrahydrofolic acid content in comparison with the initial value (360 days at 60° C. in air) [%] | Colour / discoloration | Remaining tetrahydrofolic acid content in comparison with the initial value (0 h) [%] | Remaining tetrahydrofolic acid content in comparison with the initial value (48 h) [%] | Remaining tetrahydrofolic acid content in comparison with the initial value (144 h) [%] | Remaining tetrahydrofolic acid content in comparison with the initial value (312 h) [%] | Remaining tetrahydrofolic acid content in comparison with the initial value (504 h) [%] | Remaining tetrahydrofolic acid content in comparison with the initial value (1368 h) [%] | Compound
5 | 100.0 | 100.1 | 102.5 | 98.7 | 103.6 | 103.1 | 101.2 | 93.3 | remain very pale, almost white | – | – | – | – | – | – | Nc1nc2c(c(=O)[nH]1)N[C@@H](CNc1ccc(C(=O)N[C@@H](CCC(=O)O)C(=O)O)cc1)CN2 [Crystalline (6S)-tetrahydrofolic acid, (6S)-tetrahydrofolic acid]
6 | 100.0 | 83.6 | – | 48.6 | 31.0 | – | 13.4 | – | – | – | – | – | – | – | – | Nc1nc2c(c(=O)[nH]1)N[C@H](CNc1ccc(C(=O)N[C@@H](CCC(=O)O)C(=O)O)cc1)CN2 [Yamanouchi's crystalline (6R,S)-tetrahydrofolic acid]
